From patent US11427574B2, “Compounds for treating Rac-GTPase mediated disorder” (Children's Medical Center Corporation, priority 2015, dated 2022)

Experiments:
[1] = molecular target: AKT2 (PKB beta) (Homo sapiens, UniProt P31751); experiment: Kinase screening; type: biochemical
Experimental: (§1) Compound 1 was tested for its efficacy in inhibiting activities of 40 kinases and binding with 12 GPCRs both as an antagonist and an agonist.

[2] = molecular target: CDK1/cyclin B (Homo sapiens, UniProt P06493); experiment: Kinase screening; type: biochemical
Experimental: as §1

[3] = molecular target: JAK3 (Homo sapiens, UniProt P52333); experiment: Kinase screening; type: biochemical
Experimental: as §1

[4] = molecular target: PIK3C3 (hVPS34) (Homo sapiens, UniProt Q8NEB9); experiment: Kinase screening; type: biochemical
Experimental: as §1

[5] = molecular target: MAPK3 (ERK1) (Homo sapiens, UniProt P27361); experiment: Kinase screening; type: biochemical
Experimental: as §1

[6] = molecular target: JAK1 (Homo sapiens, UniProt P23458); experiment: Kinase screening; type: biochemical
Experimental: as §1

[7] = molecular target: PAK1 (Homo sapiens, UniProt Q13153); experiment: Kinase screening; type: biochemical
Experimental: as §1

[8] = molecular target: EGFR (ErbB1) (Homo sapiens, UniProt P00533); experiment: Kinase screening; type: biochemical
Experimental: as §1

[9] = molecular target: CDC42 BPA (MRCKA) (Homo sapiens, UniProt Q5VT25); experiment: Kinase screening; type: biochemical
Experimental: as §1

[10] = molecular target: ABL1 (Homo sapiens, UniProt P00519); experiment: Kinase screening; type: biochemical
Experimental: as §1

[11] = molecular target: PIK3C2B (PI3K-C2 beta) (Homo sapiens, UniProt O00750); experiment: Kinase screening; type: biochemical
Experimental: as §1

[12] = molecular target: MAP2K2 (MEK2) (Homo sapiens, UniProt P36507); experiment: Kinase screening; type: biochemical
Experimental: as §1

[13] = molecular target: ROCK1 (Homo sapiens, UniProt Q13464); experiment: Kinase screening; type: biochemical
Experimental: as §1

[14] = molecular target: KIT (Homo sapiens, UniProt P10721); experiment: Kinase screening; type: biochemical
Experimental: as §1

[15] = molecular target: LIMK1 (Homo sapiens, UniProt P53667); experiment: Kinase screening; type: biochemical
Experimental: as §1

[16] = molecular target: AKT1 (PKB alpha) (Homo sapiens, UniProt P31749); experiment: Kinase screening; type: biochemical
Experimental: as §1

[17] = molecular target: SRC (Homo sapiens, UniProt P12931); experiment: Kinase screening; type: biochemical
Experimental: as §1

[18] = molecular target: MAPK8 (JNK1) (Homo sapiens, UniProt P45983); experiment: Kinase screening; type: biochemical
Experimental: as §1

[19] = molecular target: IGF1R (Homo sapiens, UniProt P08069); experiment: Kinase screening; type: biochemical
Experimental: as §1

[20] = molecular target: PAK2 (PAK65) (Homo sapiens, UniProt Q13177); experiment: Kinase screening; type: biochemical
Experimental: as §1

[21] = molecular target: CDC42 BPB (MRCKB) (Homo sapiens, UniProt Q9Y5S2); experiment: Kinase screening; type: biochemical
Experimental: as §1

[22] = molecular target: MYLK (MLCK) (Homo sapiens, UniProt Q15746); experiment: Kinase screening; type: biochemical
Experimental: as §1

[23] = molecular target: ROCK2 (Homo sapiens, UniProt O75116); experiment: Kinase screening; type: biochemical
Experimental: as §1

[24] = molecular target: PAK3 (Homo sapiens, UniProt O75914); experiment: Kinase screening; type: biochemical
Experimental: as §1

[25] = molecular target: PAK6 (Homo sapiens, UniProt Q9NQU5); experiment: Kinase screening; type: biochemical
Experimental: as §1

[26] = molecular target: CDK5/p25 (Homo sapiens, UniProt Q00535); experiment: Kinase screening; type: biochemical
Experimental: as §1

[27] = molecular target: PAK4 (Homo sapiens, UniProt O96013); experiment: Kinase screening; type: biochemical
Experimental: as §1

[28] = molecular target: PIK3CA/PIK3R1 (p110 alpha/p85 alpha) (Homo sapiens, UniProt P42336); experiment: Kinase screening; type: biochemical
Experimental: as §1

[29] = molecular target: MAPK9 (JNK2) (Homo sapiens, UniProt P45984); experiment: Kinase screening; type: biochemical
Experimental: as §1

[30] = molecular target: JAK2 (Homo sapiens, UniProt O60674); experiment: Kinase screening; type: biochemical
Experimental: as §1

[31] = molecular target: SYK (Homo sapiens, UniProt P43405); experiment: Kinase screening; type: biochemical
Experimental: as §1

[32] = molecular target: MAP3K2 (MEKK2) (Homo sapiens, UniProt Q9Y2U5); experiment: Kinase screening; type: biochemical
Experimental: as §1

[33] = molecular target: EPHB1 (Homo sapiens, UniProt P54762); experiment: Kinase screening; type: biochemical
Experimental: as §1

[34] = molecular target: FRAP1 (mTOR) (Homo sapiens, UniProt P42345); experiment: Kinase screening; type: biochemical
Experimental: as §1

[35] = molecular target: LIMK2 (Homo sapiens, UniProt P53671); experiment: Kinase screening; type: biochemical
Experimental: as §1

[36] = molecular target: PIK3C2A (PI3K-C2 alpha) (Homo sapiens, UniProt O00443); experiment: Kinase screening; type: biochemical
Experimental: as §1

[37] = molecular target: PDGFRA (PDGFR alpha) (Homo sapiens, UniProt P16234); experiment: Kinase screening; type: biochemical
Experimental: as §1

[38] = molecular target: FLT3 (Homo sapiens, UniProt P36888); experiment: Kinase screening; type: biochemical
Experimental: as §1

[39] = molecular target: PIK3CD/PIK3R1 (p110 delta/p85 alpha) (Homo sapiens, UniProt O00329); experiment: Kinase screening; type: biochemical
Experimental: as §1

[40] = molecular target: PAK7 (KIAA1264) (Homo sapiens, UniProt Q9P286); experiment: Kinase screening; type: biochemical
Experimental: as §1

[41] = molecular target: Tiam1-Rac complex (Homo sapiens, UniProt P63000); experiment: Homologous time resolved fluorescence (HTRF) binding assay
Experimental: (§2) Compound 1 was tested for its efficacy in binding with Rac1 in two independent binding assays, i.e., 2D NMR spectroscopy and Homologous time resolved fluorescence assay (HTRF).
(§3) In the 2D NMR assay, samples containing 50 μM Rac1 and 250 μM or 400 μM Compound 1 were used.
(§4) Compound 2 was tested for its efficacy in binding with Rac1 in two independent binding assays, i.e., 2D NMR spectroscopy and Homologous time resolved fluorescence assay (HTRF).
(§5) In the 2D NMR assay, a sample containing 50 μM Rac1 and 250 μM Compound 2 was used.

[42] = system: SEM cell line; experiment: Annexin V flow assay for apoptosis and cell death, SEM; type: cell-based; settings: Annexin V staining
Text: FIGS. 3a-3c show three graphs illustrating the dose dependent inhibition of proliferation of Compound 1 in SEM, P12, and Loucy cells as measured by MTS assay. […] Compound 1 was further analyzed for its effect on cell apoptosis and cell death using a flow based assay using Annexin V staining.
Compound 2 was further analyzed for its effect on cell apoptosis and cell death using a flow based assay using Annexin V staining.

[43] = system: P12-ICHIKAWA cells; experiment: In vivo P12-ICHIKAWA leukemia model in NSG mice; settings: 50 mg/Kg body weight oral twice daily; supine position, vs vehicle
Experimental: Specifically, cell line P12-ICHIKAWA was marked with a lentiviral vector coexpressing Luciferase and an mCherry fluorescent tag. Sorted mCherry positive P12-ICHIKAWA cells were injected into immunodeficient (NSG) mice. About 3 weeks after injection, based on an estimation of the tumor burden by quantitative assessment of bioluminescence imaging (BLI) in vivo, mice began treatment. Mice received twice daily oral doses of Compound 2 (50 mg/Kg body weight) or placebo. Each of the Compound 2 group and the vehicle group had eight mice. BLI analysis was performed three times a week to assess tumor burden. Toxicity was assessed by evaluating body weight in treated mice vs vehicle group (see FIG. 13a). The experiment was halted at day 18 after beginning of treatment due to the very aggressive nature of the disease in the vehicle group. Mice were imaged in the supine and prone position. FIG. 13b summarizes BLI values normalized to treatment start in both the compound 2 group and the vehicle group in the supine position.

[44] = system: SEM cells; experiment: Proliferation assay in SEM leukemia cells; type: cell-based; settings: compared to Compound 1 (FIG. 12a)
Experimental: Dose Dependent Inhibition of Proliferation The 100 compounds selected from the initial in silico screen were assayed for inhibition of proliferation in two leukemia cell lines, SEM and P12 by Cell Titer Glo. The cells for the proliferation assay were spun down and re-suspended. The cell suspension was then divided and the compound to be tested added in desired concentrations and subsequently plated. Following an incubation period, the Cell Titer Glo reagent (Promega CellTiter 96® Aqueous Non-Radioactive Cell Proliferation Assay) was added and allowed to incubate. The absorbance is subsequently measured at 490 nm using a plate reader. Each compound was analyzed for its effects on cell proliferation.
The lead compound, i.e. Compound 1, was analyzed for its effect on cell proliferation at various doses on three different leukemia cell lines: SEM, P12, and Loucy. In order to quantitate the percentage inhibition of cell proliferation, Cell Titer Glo analysis was completed as described in Example 2 above.
FIGS. 3a-3c show three graphs illustrating the dose dependent inhibition of proliferation of Compound 1 in SEM, P12, and Loucy cells as measured by MTS assay. […] Compound 1 was further analyzed for its effect on cell apoptosis and cell death using a flow based assay using Annexin V staining. […]

[45] = system: cancer cell; experiment: Cellular proliferation assay of SAR analogs; type: cell-based; settings: among 48 tested SAR analogs
Experimental: SAR was performed to identify analogs of Compound that have improved properties. 56 Compounds identified in this SAR study were synthesized. Among them, 48 compounds were tested a cellular proliferation assay.

[46] = molecular target: Rac1 (Homo sapiens, UniProt P63000); experiment: 2D NMR spectroscopy binding assay; settings: 50 μM Rac1 and 250 μM Compound 2
Experimental: as §2, §3, §4, §5

Chain of PAK3 (O75914 whole entry, species assumed): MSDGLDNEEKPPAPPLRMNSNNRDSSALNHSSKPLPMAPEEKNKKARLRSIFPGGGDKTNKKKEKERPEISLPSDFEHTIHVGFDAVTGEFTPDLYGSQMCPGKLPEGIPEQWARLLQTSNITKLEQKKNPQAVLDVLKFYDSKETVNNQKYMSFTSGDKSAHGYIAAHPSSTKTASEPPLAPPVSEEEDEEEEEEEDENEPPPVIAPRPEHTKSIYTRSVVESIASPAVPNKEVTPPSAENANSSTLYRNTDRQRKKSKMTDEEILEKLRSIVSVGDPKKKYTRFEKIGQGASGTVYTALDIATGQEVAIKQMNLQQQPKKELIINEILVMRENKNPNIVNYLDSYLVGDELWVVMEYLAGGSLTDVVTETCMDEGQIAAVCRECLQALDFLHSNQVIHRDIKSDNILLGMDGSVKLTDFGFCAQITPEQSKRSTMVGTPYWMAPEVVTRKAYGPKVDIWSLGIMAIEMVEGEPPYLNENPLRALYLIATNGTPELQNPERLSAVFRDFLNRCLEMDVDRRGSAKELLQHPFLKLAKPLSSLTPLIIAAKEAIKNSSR
Chain of FLT3 (P36888 27-993, species assumed): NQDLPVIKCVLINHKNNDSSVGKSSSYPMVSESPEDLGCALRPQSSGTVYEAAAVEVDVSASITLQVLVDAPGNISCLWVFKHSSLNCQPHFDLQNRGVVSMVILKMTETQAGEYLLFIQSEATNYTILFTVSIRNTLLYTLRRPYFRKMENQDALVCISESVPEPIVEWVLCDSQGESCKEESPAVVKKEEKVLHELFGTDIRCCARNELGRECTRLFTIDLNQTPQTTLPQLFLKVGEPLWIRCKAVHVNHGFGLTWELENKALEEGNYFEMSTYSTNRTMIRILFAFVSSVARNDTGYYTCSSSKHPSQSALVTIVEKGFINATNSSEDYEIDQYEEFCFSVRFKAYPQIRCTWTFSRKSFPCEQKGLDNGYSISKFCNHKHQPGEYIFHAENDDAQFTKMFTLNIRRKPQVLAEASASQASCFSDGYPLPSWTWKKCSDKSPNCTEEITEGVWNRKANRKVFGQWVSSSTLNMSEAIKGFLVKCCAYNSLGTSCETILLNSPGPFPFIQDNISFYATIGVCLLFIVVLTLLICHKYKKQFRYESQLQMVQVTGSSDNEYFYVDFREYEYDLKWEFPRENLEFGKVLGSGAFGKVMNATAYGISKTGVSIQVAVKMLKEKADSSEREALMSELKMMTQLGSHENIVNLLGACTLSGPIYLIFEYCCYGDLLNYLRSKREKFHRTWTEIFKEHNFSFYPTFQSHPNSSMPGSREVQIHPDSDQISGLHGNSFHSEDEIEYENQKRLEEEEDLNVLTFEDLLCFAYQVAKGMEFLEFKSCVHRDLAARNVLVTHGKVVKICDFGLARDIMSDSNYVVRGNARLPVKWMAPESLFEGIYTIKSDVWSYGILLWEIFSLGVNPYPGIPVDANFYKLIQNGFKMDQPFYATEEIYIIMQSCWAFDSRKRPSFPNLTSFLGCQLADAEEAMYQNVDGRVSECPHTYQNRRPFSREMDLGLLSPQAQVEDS
Chain of AKT2 (PKB beta) (P31751 whole entry, species assumed): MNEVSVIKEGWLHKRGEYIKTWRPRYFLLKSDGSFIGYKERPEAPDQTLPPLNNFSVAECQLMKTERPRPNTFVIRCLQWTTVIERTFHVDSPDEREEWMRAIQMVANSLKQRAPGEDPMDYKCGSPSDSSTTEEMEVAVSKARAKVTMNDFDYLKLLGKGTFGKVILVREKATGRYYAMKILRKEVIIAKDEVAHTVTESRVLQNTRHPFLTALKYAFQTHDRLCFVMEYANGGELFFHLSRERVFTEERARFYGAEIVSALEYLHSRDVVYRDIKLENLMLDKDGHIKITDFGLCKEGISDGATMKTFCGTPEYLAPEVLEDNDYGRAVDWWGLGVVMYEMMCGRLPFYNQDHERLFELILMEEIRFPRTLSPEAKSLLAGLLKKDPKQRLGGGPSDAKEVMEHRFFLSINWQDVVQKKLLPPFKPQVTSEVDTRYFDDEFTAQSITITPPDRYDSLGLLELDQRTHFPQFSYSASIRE
Chain of ROCK2 (O75116 whole entry, species assumed): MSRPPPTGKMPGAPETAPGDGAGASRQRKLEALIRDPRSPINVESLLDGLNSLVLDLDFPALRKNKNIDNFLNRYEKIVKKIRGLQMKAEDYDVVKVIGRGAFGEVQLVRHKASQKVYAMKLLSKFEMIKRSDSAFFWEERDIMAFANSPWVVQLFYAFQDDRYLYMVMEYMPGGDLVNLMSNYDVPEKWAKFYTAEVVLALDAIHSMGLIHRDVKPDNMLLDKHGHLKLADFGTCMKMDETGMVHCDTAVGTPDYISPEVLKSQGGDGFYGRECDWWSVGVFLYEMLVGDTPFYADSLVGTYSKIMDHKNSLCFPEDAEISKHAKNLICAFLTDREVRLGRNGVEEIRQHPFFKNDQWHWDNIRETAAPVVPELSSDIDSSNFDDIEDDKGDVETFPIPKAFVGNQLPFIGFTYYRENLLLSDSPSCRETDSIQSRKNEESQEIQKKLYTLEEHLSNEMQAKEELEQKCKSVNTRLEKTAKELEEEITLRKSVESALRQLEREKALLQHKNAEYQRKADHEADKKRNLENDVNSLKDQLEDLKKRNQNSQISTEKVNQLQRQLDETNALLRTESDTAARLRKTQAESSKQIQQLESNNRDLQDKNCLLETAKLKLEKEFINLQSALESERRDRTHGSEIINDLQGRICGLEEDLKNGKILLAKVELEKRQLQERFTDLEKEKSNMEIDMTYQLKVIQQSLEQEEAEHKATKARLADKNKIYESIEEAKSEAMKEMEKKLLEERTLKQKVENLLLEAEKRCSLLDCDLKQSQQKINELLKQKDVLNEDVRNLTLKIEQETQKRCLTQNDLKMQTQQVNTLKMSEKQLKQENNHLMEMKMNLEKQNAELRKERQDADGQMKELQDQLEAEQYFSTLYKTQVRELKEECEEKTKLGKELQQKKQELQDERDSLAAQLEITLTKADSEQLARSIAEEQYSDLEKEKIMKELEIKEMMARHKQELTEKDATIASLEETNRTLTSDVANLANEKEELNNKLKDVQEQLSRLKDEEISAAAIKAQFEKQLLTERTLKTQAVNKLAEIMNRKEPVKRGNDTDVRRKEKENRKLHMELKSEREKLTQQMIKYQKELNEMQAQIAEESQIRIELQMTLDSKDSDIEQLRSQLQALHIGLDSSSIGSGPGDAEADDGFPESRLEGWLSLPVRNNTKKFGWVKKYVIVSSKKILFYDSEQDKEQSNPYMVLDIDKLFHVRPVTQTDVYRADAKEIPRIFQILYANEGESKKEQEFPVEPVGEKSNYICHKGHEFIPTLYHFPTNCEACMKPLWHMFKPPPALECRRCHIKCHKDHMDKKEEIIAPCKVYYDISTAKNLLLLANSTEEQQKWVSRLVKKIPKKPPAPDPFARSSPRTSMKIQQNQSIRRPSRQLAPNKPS
Chain of PIK3C2A (PI3K-C2 alpha) (O00443 whole entry, species assumed): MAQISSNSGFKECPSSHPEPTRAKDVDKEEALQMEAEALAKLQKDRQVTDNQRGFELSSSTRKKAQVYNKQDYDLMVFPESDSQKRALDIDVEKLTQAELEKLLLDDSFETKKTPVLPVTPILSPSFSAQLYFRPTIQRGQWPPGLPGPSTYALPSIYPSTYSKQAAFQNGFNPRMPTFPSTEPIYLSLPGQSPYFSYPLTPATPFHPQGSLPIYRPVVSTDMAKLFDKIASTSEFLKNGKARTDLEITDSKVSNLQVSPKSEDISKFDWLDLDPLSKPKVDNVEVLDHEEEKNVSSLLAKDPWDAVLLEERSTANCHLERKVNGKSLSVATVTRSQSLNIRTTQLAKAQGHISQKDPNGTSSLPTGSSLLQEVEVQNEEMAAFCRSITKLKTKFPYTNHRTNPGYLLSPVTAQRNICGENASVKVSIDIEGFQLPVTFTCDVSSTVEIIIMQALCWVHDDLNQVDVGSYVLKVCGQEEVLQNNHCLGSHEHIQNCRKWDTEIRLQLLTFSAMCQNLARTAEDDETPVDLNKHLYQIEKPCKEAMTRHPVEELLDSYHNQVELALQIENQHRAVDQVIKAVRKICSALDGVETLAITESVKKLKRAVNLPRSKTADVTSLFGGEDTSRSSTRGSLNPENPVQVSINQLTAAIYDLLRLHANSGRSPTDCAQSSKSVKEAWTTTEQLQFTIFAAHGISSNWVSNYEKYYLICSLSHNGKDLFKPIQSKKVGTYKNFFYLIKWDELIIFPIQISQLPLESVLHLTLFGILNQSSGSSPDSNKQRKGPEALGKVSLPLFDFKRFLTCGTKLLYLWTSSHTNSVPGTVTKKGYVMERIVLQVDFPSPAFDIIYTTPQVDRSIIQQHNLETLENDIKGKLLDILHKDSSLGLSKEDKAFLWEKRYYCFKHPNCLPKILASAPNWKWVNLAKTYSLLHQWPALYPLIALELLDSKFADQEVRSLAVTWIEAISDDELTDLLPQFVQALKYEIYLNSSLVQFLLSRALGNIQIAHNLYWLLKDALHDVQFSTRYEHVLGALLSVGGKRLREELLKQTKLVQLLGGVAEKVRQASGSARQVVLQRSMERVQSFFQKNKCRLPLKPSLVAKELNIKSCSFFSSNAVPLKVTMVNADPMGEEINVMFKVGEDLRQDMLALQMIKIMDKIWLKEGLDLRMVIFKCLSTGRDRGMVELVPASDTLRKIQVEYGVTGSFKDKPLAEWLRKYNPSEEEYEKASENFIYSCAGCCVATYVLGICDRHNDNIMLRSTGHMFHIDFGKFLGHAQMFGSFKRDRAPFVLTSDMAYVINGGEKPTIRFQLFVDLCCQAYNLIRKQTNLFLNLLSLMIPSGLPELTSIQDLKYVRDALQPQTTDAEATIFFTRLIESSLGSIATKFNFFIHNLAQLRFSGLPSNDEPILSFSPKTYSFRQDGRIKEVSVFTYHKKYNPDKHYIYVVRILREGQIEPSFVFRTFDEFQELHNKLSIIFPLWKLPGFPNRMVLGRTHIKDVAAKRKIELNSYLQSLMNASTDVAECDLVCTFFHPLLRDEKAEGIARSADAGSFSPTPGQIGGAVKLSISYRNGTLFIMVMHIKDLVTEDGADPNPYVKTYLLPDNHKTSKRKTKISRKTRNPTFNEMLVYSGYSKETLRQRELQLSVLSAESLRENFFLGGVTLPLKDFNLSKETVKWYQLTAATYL

Work on `CCN(CC)CCCC(C)Nc1nc(C)cc(Nc2ccc3nc(C)cc(N)c3c2)n1.Cl.Cl.Cl` (racemic) [NSC23766, N6-[2-[[4-(diethylamino)-1-methylbutyl]amino]-6-methyl-4-pyrimidinyl]-2-methyl-4,6-quinolinediamine trihydrochloride, reference compound] yielded an inhibition percentage [1] of −22.9 percentage, an inhibition percentage [2] of 1.3 percentage and an inhibition percentage [3] of 21.9 percentage. For the same molecule, the inhibition percentage [4] was −17.8 percentage, the inhibition percentage [5] was 11.5 percentage and the inhibition percentage [6] was 50.6 percentage. It also gave an inhibition percentage [7] of 24.4 percentage, an inhibition percentage [8] of 24.6 percentage and an inhibition percentage [9] of −1.8 percentage. For the same molecule, the inhibition percentage [10] was 19.3 percentage, the inhibition percentage [11] was −1.8 percentage and the inhibition percentage [12] was 20.7 percentage. For the same molecule, the inhibition percentage [13] was −2.0 percentage, the inhibition percentage [14] was 26.3 percentage and the inhibition percentage [15] was −14.2 percentage. For the same molecule, the inhibition percentage [16] was −23.3 percentage, the inhibition percentage [17] was 43.6 percentage and the inhibition percentage [18] was −1.1 percentage. It also gave an inhibition percentage [19] of 42.9 percentage, an inhibition percentage [20] of 0.3 percentage and an inhibition percentage [21] of −4.6 percentage. The inhibition percentage [22] was 1.6 percentage, the inhibition percentage [23] was −14.7 percentage and the inhibition percentage [24] was 6.3 percentage. The inhibition percentage [25] was 8.9 percentage, the inhibition percentage [26] was 11.4 percentage and the inhibition percentage [27] was −0.2 percentage. The inhibition percentage [28] was −0.4 percentage, the inhibition percentage [29] was −8.9 percentage and the inhibition percentage [30] was 37.7 percentage. It also gave an inhibition percentage [31] of 39.4 percentage, an inhibition percentage [32] of 14.3 percentage and an inhibition percentage [33] of 19.8 percentage. For the same molecule, the inhibition percentage [34] was 27.0 percentage, the inhibition percentage [35] was −3.5 percentage and the inhibition percentage [36] was −3.3 percentage. The inhibition percentage [37] was 34.8 percentage, the inhibition percentage [38] was 31.4 percentage and the inhibition percentage [39] was −5.8 percentage. The inhibition percentage [40] was 4.9 percentage.
`CCc1ccc(CN(C)C(=O)CCc2nnc(CCc3c[nH]c4ccccc34)o2)cc1` [Compound 2] was tested, and the “binding in the HTRF assay” value [41] was “no binding”, the “cell apoptosis and cell death” value [42] was “caused cells apoptosis and cell death” and the “bioluminescence in the mice” value [43] was “significantly reduced”. The “efficacy in inhibiting proliferation of SEM cells” value [44] was “improved efficacy”, the “inhibition of cancer cell proliferation” value [45] was “strongest inhibition” and the “binding to Rac1 by 2D NMR” value [46] was “did not indicate any significant binding”.
